Patent publication US20130137573A1, “HERBICIDAL COMPOSITIONS COMPRISING, AND METHODS OF USE OF, HERBICIDALLY ACTIVE PYRANDIONES” (priority 2009, published 2013)

System: Echinochloa crus-galli (ECHCG)
Test: Biological Example 3 (Test 120): visual herbicidal damage to flooded ECHCG
Format: in vivo
Conditions: EC050, 14DAA
Experimental: Rice seeds, variety Koshihikari, were sown in seed trays, after 7 days they were transplanted as 3 groups of 2 plants, into pots containing a standard clay soil saturated with water replicating swampy conditions. These were grown on for 9 days in a glasshouse bay (30/20° C. day/night; 18/6 hours light/dark; 75% humidity). Approx 10-20 seeds of Echinochloa crus-galli were sown into pots 13 days prior to application, in the same conditions as the rice. All pots were flooded to 2-3 cm water depth the day prior to application. Growth stages at time of application were: Rice: 2-3 leaves; ECHCG: 2-3 leaves.
The test solutions were prepared by mixing the appropriate aliquots of the test substance (here, compound A-13 as the EC050 Formulation Example 1 disclosed herein) in de-ionised water to give the desired treatment concentration.
Application was made by pipetting the required amount of the test solution gently into the flood water of the appropriate pot.
The test plants were grown on in the same glasshouse conditions, and watered twice daily keeping the flood water at a depth of 2-3 cm.
A visual assessment of the % herbicidal damage was made 14 days after application (0=no damage to plants, 100=total kill).

## CC1(C)OC(C)(C)C(O)=C(c2cc(-c3ccc(Cl)cc3F)ccc2C2CC2)C1=O [compound A-13, 4-(4′-Chloro-4-cyclopropyl-2′-fluorobiphenyl-3-yl)-2,2,6,6-tetramethylpyran-3,5-dione]
30 g/ha
  ECHCG % herbicidal damage, Mean of 2 repetitions: 58%
  ECHCG % herbicidal damage, Repetition A: 55%
  ECHCG % herbicidal damage, Repetition B: 60%
60 g/ha
  ECHCG % herbicidal damage, Mean of 2 repetitions: 63%
  ECHCG % herbicidal damage, Repetition A: 65%
  ECHCG % herbicidal damage, Repetition B: 60%
125 g/ha
  ECHCG % herbicidal damage, Mean of 2 repetitions: 88%
  ECHCG % herbicidal damage, Repetition A: 85%
  ECHCG % herbicidal damage, Repetition B: 90%
  ECHCG control (span of the 2 repetitions): 85-90%
